“Also recorded” adds a separate entry of the source.
Key:
[1] = test system: E. coli BL21 (DE3) cells with/without the kasH or kasF gene; experiment: Disc diffusion assay (resistance assay); type: cell-based
Procedure: KSM susceptibility and production were confirmed by disc diffusion assay. An E. coli culture was grown at 37 °C overnight and spread on an LB agar plate (pH 7.0). About 5 µL of extracted samples from Streptomyces lividans TK64 (from days 2–5) were loaded onto the paper disc. The disc was placed onto the surface of an LB agar plate and incubated at 37 °C overnight to visualize the zone of inhibition (ZOI).
For the KSM resistant assay, BL21 cells with/without the kasH or kasF gene were individually expressed and seeded on LB agar plates (pH 7.0). About 5 µL of different aminoglycoside antibiotics (amikacin, gentamicin, sisomicin, streptothricin-F, or tobramycin) were loaded onto each paper disc and placed on the surface of the LB plates. The plates were incubated 37 °C overnight to visualize the appearance of the zone of inhibition (ZOI). Note: this is a standard protocol for evaluating the effectiveness of common antibiotics, including aminoglycosides; there is no apparent impact concerning the structural integrity or biological deterioration of the selected aminoglycosides at pH 7.0 during the examining course.

KasQ E308A = KasQ E308A (Streptomyces kasugaensis, UniProt A0A0K1H2R6, E308A); experiment: biochemical; type: binding; conditions: ITC; KasQ mutant E308A
Procedure: (§1) Site-directed mutagenesis was performed using QuikChange (Stratagene), following the manufacturer’s protocol. The wild-type KasQ plasmid (BCRC12349) was used as the template for the single mutation. All mutations were confirmed by DNA sequencing. KasQ mutants were expressed and purified with the same protocol as used for the wild-type protein.
(§2) The cell stirring speed was 1000 rpm.

KasQ Q95A = KasQ Q95A (Streptomyces kasugaensis, UniProt A0A0K1H2R6, Q95A); experiment: biochemical; type: binding
Procedure: as §1, §2

KasQ Q95E = KasQ Q95E (Streptomyces kasugaensis, UniProt A0A0K1H2R6, Q95E); experiment: biochemical; type: binding
Procedure: as §1, §2

KasQ [2] = target: T1, KasQ (Streptomyces kasugaensis, UniProt A0A0K1H2R6); experiment: HPLC kinetic analysis of KasQ epimerization; type: biochemical; conditions: KasQ_WT with UDP-GlcNAc and 1 mM MgCl2, 25 mM Tris pH 8.0, 37 °C
Procedure: The reaction mixture was mixed by vortex and incubated at 37 °C. Reactions were stopped at six different time points (10, 30, 60, 120, 180, and 240 min) by adding equal volumes of chloroform. Precipitation was removed by centrifugation and analyzed by HPLC-LTQ-MS using HPLC method B as described above. […] The Michaelis–Menten curve of the KasQ activity was derived from the integrated peak area of each reaction.

KasQ [3] = target: T1, KasQ; experiment: Isothermal titration calorimetry (ITC) of KasQ wild type versus substrates; type: binding; conditions: ITC, KasQ wild type; for Kd: 25 °C, 50 mM HEPES pH 8.0, 100 mM NaCl;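 for all read-outs here: titration of 1 mM substrate into 0.1 mM KasQ, 18 injections spaced 120 s, data fitted to a single-site binding model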
Procedure: (§3) ITC analyses were carried out at 25 °C using an ITC200 microcalorimeter (MicroCal Inc., Northampton, MA, USA). […] The titration experiment contains 18 injections (2 μL for a duration of 4 s) and each injection was separated by 120 s. The distilled water was filled in the reference cell throughout all titrations. The cell stirring speed was 1000 rpm. The collected raw data were processed in Origin 7.0 (provided by MicroCal) by a non-linear least square method to a single-site binding model.

KasQ E308Q = KasQ E308Q (Streptomyces kasugaensis, UniProt A0A0K1H2R6, E308Q); type: binding; conditions: ITC; KasQ mutant E308Q
Procedure: as §1, §2

KasF = experiment: HPLC acetylation assay with KasF and AcCoA; type: biochemical, Streptomyces kasugaensis; conditions: 1 mM substrate, 0.5 mM AcCoA, 37 °C, 12 h
[4] = target: KasQ (Streptomyces kasugaensis); experiment: not stated; oligomeric state of the purified protein in solution (Figure S3: protein overexpression and purification); the method is not named in the text shown
KasH [5] = target: T2, KasH (Streptomyces kasugaensis, UniProt A0A0K1H2T0); experiment: HPLC acetylation assay with KasH and AcCoA; type: biochemical; conditions: 1 mM substrate, 0.5 mM AcCoA, 37 °C, 12 h
KasH [6] = target: T2, KasH; experiment: ITC of KasH versus ligands;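 note: isothermal titration calorimetry at 25 °C, 0.1 mM KasH in the cell titrated with 1 mM ligand over 18 injections, data fit with a one-site binding model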
Procedure: as §3

[7] = target: the molecule itself; experiment: not stated; oligomeric state of the purified protein in solution (Figure S3: protein overexpression and purification); the method is not named in the text shown
[8] = E. coli BL21 with/without the kasH or kasF gene, all conditions

KasQ Q95E, sequence (A0A0K1H2R6 entry or part of it Q95E): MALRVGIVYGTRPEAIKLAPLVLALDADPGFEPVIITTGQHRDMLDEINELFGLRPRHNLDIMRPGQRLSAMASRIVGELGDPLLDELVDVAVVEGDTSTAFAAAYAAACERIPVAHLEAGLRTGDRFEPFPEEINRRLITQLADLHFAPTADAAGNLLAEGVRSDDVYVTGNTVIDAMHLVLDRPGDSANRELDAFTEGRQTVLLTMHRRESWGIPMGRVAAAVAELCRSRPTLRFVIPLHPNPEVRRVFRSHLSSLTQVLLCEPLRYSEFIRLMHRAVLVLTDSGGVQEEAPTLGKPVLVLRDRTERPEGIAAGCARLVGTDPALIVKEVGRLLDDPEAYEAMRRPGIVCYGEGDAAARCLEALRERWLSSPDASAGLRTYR
T1 sequence (A0A0K1H2R6 entry or part of it): as the sequence (A0A0K1H2R6 entry or part of it Q95E) above, with E95Q counted along it
KasQ E308Q, sequence (A0A0K1H2R6 entry or part of it E308Q): as the sequence (A0A0K1H2R6 entry or part of it Q95E) above, with E95Q counted along it
KasQ E308A, sequence (A0A0K1H2R6 entry or part of it E308A): as the sequence (A0A0K1H2R6 entry or part of it Q95E) above, with E95Q counted along it
KasQ Q95A, sequence (A0A0K1H2R6 entry or part of it Q95A): as the sequence (A0A0K1H2R6 entry or part of it Q95E) above, with E95A counted along it

In the case of `CN[C@@H]1[C@@H](O)[C@@H](O[C@@H]2[C@@H](O)[C@H](O[C@H]3OC(CN)=CC[C@H]3N)[C@@H](N)C[C@H]2N)OC[C@]1(C)O` [sisomicin], the “zone of inhibition (ZOI)” value [1, 8] is reported as “appearance of ZOI in all conditions”.

For `NC[C@H]1O[C@H](O[C@H]2[C@H](O)[C@@H](O[C@H]3O[C@H](CO)[C@@H](O)[C@H](N)[C@H]3O)[C@H](N)C[C@@H]2N)[C@H](N)[C@@H](O)[C@@H]1O` [kanamycin B], the “zone of inhibition (ZOI)” value [1, 8] was “appearance of ZOI in all conditions”.

`CC(=O)NC1C(OP(=O)(O)OP(=O)(O)OCC2OC(n3ccc(=O)[nH]c3=O)C(O)C2O)OC(CO)C(O)C1O` (stereo not shown) [UDP-GlcNAc 1, UDP-N-acetyl-glucosamine] was tested, and the Kd (KasQ E308A) was “NBD”, the “∆G” value (KasQ E308A) was “NBD” and the “∆H” value (KasQ E308A) was “NBD”. The “∆S” value (KasQ E308A) was “NBD”, the Kd (KasQ Q95A) was 45.2 µM and the n (KasQ Q95A; ITC binding stoichiometry, KasQ mutant Q95A) was 1.6 ± 0.1. For the same molecule, the “∆G” value (KasQ Q95A; ITC, KasQ mutant Q95A) was -5.939 ± 0.1764 kcal/mol, the “∆H” value (KasQ Q95A; ITC, KasQ mutant Q95A) was -0.7212 ± 0.1764 kcal/mol and the “∆S” value (KasQ Q95A; ITC, KasQ mutant Q95A) was 17.5 cal mol-1 K-1. The Kd (KasQ Q95E) was 14.2 µM, the n (KasQ Q95E; ITC binding stoichiometry, KasQ mutant Q95E) was 0.7 ± 0.0 and the “∆G” value (KasQ Q95E; ITC, KasQ mutant Q95E) was -6.607 ± 0.0679 kcal/mol. The “∆H” value (KasQ Q95E; ITC, KasQ mutant Q95E) was -0.6141 ± 0.0679 kcal/mol, the “∆S” value (KasQ Q95E; ITC, KasQ mutant Q95E) was 20.1 cal mol-1 K-1 and the kcat (KasQ [2]; listed as UDP-GlcNAC) was 1.33 (± 0.24) s^−1. The kcat (KasQ [2]; listed as UDP-GlcNAc) was 1.33 s⁻¹, the “∆G” value (KasQ [3]) was “NBD” and the “∆H” value (KasQ [3]) was “NBD”. The “∆S” value (KasQ [3]) was “NBD”, the Kd (KasQ [3]) was “NBD” and the Kd (KasQ E308Q) was “NBD”. The “∆G” value (KasQ E308Q) was “NBD”, the “∆H” value (KasQ E308Q) was “NBD” and the “∆S” value (KasQ E308Q) was “NBD”.

In the case of `NC1C(OP(=O)(O)OP(=O)(O)OCC2OC(n3ccc(=O)[nH]c3=O)C(O)C2O)OC(CO)C(O)C1O` (stereo not shown) [UDP-GlcNH2], the “∆G” value (KasQ [3]) is reported as “NBD”, the “∆H” value (KasQ [3]) is reported as “NBD” and the “∆S” value (KasQ [3]) is reported as “NBD”. The Kd (KasQ [3]) was “Neither UDP-GlcNH2 that was enzymatically synthesized using the published procedure [38] nor AMP, ADP, ATP, GMP, GDP, or GTP shows detectable binding affinity and NBD” and the “acetylation by KasF” value (KasF) was “not subject to acetylation of KasF; also recorded: could not observe the formation of UDP-GlcNAc”.

For KasQ (enzyme), the stoichiometry N [4] was 2.

In the case of `NC[C@H]1O[C@H](O[C@H]2[C@H](O)[C@@H](O[C@H]3O[C@H](CO)[C@@H](O)[C@H](N)[C@H]3O)[C@H](N)C[C@@H]2N)[C@H](N)C[C@@H]1O` [tobramycin], the “zone of inhibition (ZOI)” value [1, 8] is reported as “appearance of ZOI in all conditions”.

With `NCC[C@H](O)C(=O)N[C@@H]1C[C@H](N)[C@@H](O[C@H]2O[C@H](CN)[C@@H](O)[C@H](O)[C@H]2O)[C@H](O)[C@H]1O[C@H]1O[C@H](CO)[C@@H](O)[C@H](N)[C@H]1O` [amikacin] the “zone of inhibition (ZOI)” value [1, 8] was “appearance of ZOI in all conditions”.

For `CNC(C)C1CCC(N)C(OC2C(N)CC(N)C(OC3OCC(C)(O)C(NC)C3O)C2O)O1` (stereo not shown) [gentamicin], the “zone of inhibition (ZOI)” value [1, 8] was “appearance of ZOI in all conditions”.

`NCCC[C@H](N)CC(=O)N[C@@H]1[C@H](O)[C@@H](OC(N)=O)[C@@H](CO)O[C@H]1NC1=N[C@@H]2C(=O)NC[C@@H](O)[C@H]2N1` [streptothricin-F] was tested, and the “zone of inhibition (ZOI)” value [1, 8] was “appearance of ZOI in all conditions”.

`C[C@H]1O[C@H](O[C@H]2[C@H](O)[C@@H](O)[C@@H](O)[C@H](O)[C@@H]2O)[C@@H](N)C[C@@H]1NC(=N)C(=O)O` [KSM, Kasugamycin] was tested, and the “acetylation by KasH” value (KasH [5]) was “completely acetylated”, the “growth of E. coli in the presence of KSM” value ([1]; E. coli BL21 (DE3) carrying the kasF gene, disc ~5 μL of 7.6 mg/mL KSM) was “moderate growth” and the “growth of E. coli in the presence of KSM” value ([1]; E. coli BL21 (DE3) carrying the kasH gene, disc ~5 μL of 7.6 mg/mL KSM) was “not affected”. For the same molecule, the “zone of inhibition (ZOI)” value ([1]; E. coli BL21 (DE3) with empty pET28a+ (no acetyltransferase gene), disc ~5 μL of 7.6 mg/mL KSM) was “clear zone of inhibition”, the “acetylation by KasF” value (KasF) was “partially acetylated” and the n (KasH [6]; ITC binding stoichiometry, KasH, 50 mM MOPS pH 7.5, 100 mM NaCl) was 1.0 ± 0.1. The “∆G” value (KasH [6]; ITC, KasH) was -5.804 ± 0.4705 kcal/mol, the “∆H” value (KasH [6]; ITC, KasH) was -2.316 ± 0.4705 kcal/mol and the “∆S” value (KasH [6]; ITC, KasH) was 11.7 cal mol-1 K-1. For the same molecule, the Kd (KasH [6]; ITC, KasH, 50 mM MOPS pH 7.5, 100 mM NaCl) was 56.1 µM, the “binding affinity versus KasH relative to AcCoA” value (KasH [6]; ITC, higher than AcCoA) was 2.9 fold and the “binding affinity versus KasH relative to CoA” value (KasH [6]; ITC, higher than CoA) was 1.7 fold.

B1: KasH (enzyme, Streptomyces kasugaensis, UniProt A0A0K1H2T0 1-130, looked up)
chain: MTITYEWRGGFDNAALNALHADGFGPPIAQTDWRTRLERHSLGWVCAWEDGLIGFVNVVWDGGAHAFILDTVVARHCRSRGVGAALVAKAADEARAANCEWLHVDFEEHLRAFYFDACGFKETTAGLIAL
notes: KasH, acetyltransferase of the kasugamycin biosynthetic gene cluster, Streptomyces kasugaensis; gene amplified and cloned into pET28a+; also called acetyltransferase KasH; source: E. coli BL21, purified (Ni-agarose, gel filtration)
In the case of B1, the “stoichiometry N” value [7] is reported as 2.

Source: PMC8869731, “KasQ an Epimerase Primes the Biosynthesis of Aminoglycoside Antibiotic Kasugamycin and KasF/H Acetyltransferases Inactivate Its Activity” (Biomedicines, 2022)
